Data published in patent US10759740B2, “Antibacterial agents” (Rutgers, The State University of New Jersey, priority 2016, dated 2020).

Experiments:
[1] = test system: L. rhamnosus biofilm; experiment: Minimum biofilm bactericidal concentration (MBC-B); format: cell-based, Lactobacillus rhamnosus; details: pre-formed biofilm, ≥3 log reduction
Method: (§1) G. vaginalis ATCC 14019 strain was grown overnight in Brain Heart Infusion broth (Difco, Sparks, Md.) supplemented with 3% horse serum (sBHI) (JRH Biosciences, KS), while BHI supplemented with 1% glucose (BHIG) was used for biofilm formation assays. Each experiment using G. vaginalis was performed anaerobically (10% hydrogen, 5% carbon dioxide, and 85% nitrogen) within anaerobic glove boxes (Coy Laboratory Products, Inc., Grass Lake, Mich., USA). Three species of vaginal Lactobacillus were used in this study to evaluate the possible harmful effects of CAms on beneficial bacteria: Lactobacillus plantarum ATCC 39268, Lactobacillus rhamnosus 160 (provided by Dr. Aroutcheva, Rush University Medical Center) and Lactobacillus gasseri ATCC 33323; all were grown for 18-24 h in DeMan, Rogosa and Sharpe broth (MRS Difco B D, Franklin Lakes, N.J., USA) under aerobic conditions at 37° C. For lactobacilli biofilm formation, MRS broth supplemented with 1% glucose and 2% sucrose (Fisher Scientific, Waltham, Mass., USA) was utilized.
(§2) This assay was performed according to Algburi et al. (Algburi et al., 2015. Path Dis 73(5)) with minor modifications: the overnight-grown G. vaginalis was diluted to approximately 10^7 CFU/ml. For the biofilm formation assay, aliquots of 200 μl were added into a 96-well tissue culture microplate, sealed by amplification tape (Nalge Nunc International, Rochester, N.Y., USA) and incubated for 24-36 h at 37° C. After incubation, the planktonic cells were removed by gently washing the biofilm twice with 200 μl of fresh broth. The biofilm was then treated with 200 μl of a predetermined concentration of the tested compound. The microplate was incubated for 24 h at 37° C. under anaerobic conditions. After incubation, the antimicrobials (supernatant) were discarded and the biofilm was washed twice with fresh BHIG broth. The biofilm was then disrupted by vigorous pipetting, in order to determine the number of biofilm-associated cells using the spot plate method.

[2] = test system: Listeria monocytogenes Scott A; experiment: Broth microdilution assay (MIC); format: cell-based; details: BHI broth, 37° C., 24 h, no visible growth
Method: (§3) From the frozen stock (−80° C.), bacteria were inoculated into brain-hear infusion (BHI) agar (Becton Dickinson, Franklin Lakes, N.J.) and propagated under aerobic conditions at 37° C. for 24 h. After the incubation, one colony of each bacterial strain was transferred to BHI broth (Becton Dickinson, Franklin Lakes, N.J.) and sub-cultured at least twice into BHI before being used in experiments.
(§4) The minimal inhibitory concentration (MIC) of CAms were identified using a broth microdilution assay modified from previous studies. Briefly, the stock solutions of CAMs were first prepared by dissolving in double-distilled water (ddH2O) and then diluted in BHI broth at pre-determined concentrations. Further serial 2-fold dilutions were performed in a 96-well microplate (Becton Dickinson, Franklin Lakes, N.J.) with BHI broth. The inoculum concentration was adjusted to 5×10^6 CFU/mL with ultraviolet-visible (UV-vis) spectroscopy at 600 nm. An equal volume (100 μL) of bacterial suspension was added to each microplate well with a final volume of 200 μL. Plates were incubated at 37° C. for 24 h under aerobic conditions. The lowest CAm concentration that yielded no visible growth was recorded as the MIC. Cetyltrimethylammonium bromide (CTAB), a cationic amphiphile, served as a positive control that could mimic the proposed bactericidal mechanism of the newly synthesized tartaric acid-based compounds.
(§5) CAms were evaluated against five selected pathogenic microorganisms, including Gram-positive bacteria (i.e., S. aureus and L. monocytogenes) and Gram-negative bacteria (i.e., E. coli, S. typhimurium, and P. aeruginosa), using a turbidity-based microdilution method. MICs were taken as the lowest concentrations that inhibited the visible bacterial growth. […] The higher MIC values for the Gram-negative bacteria could be attributed to the presence of an additional lipopolysaccharide layer, which forms a hydrophilic barrier that could prevent penetration of the highly hydrophobic CAms.

[3] = test system: Staphylococcus aureus ATCC 13565; experiment: Broth microdilution assay (MIC); format: cell-based; details: BHI broth, 37° C., 24 h, no visible growth
Method: as §3, §4, §5

[4] = test system: Escherichia coli O157:H7; experiment: Broth microdilution assay (MIC); format: cell-based; details: BHI broth, 37° C., 24 h, no visible growth
Method: as §3, §4, §5

[5] = test system: Pseudomonas aeruginosa ATCC 15442; experiment: Broth microdilution assay (MIC); format: cell-based; details: BHI broth, 37° C., 24 h, no visible growth
Method: as §3, §4, §5

[6] = test system: Salmonella enterica serovar typhimurium; experiment: Broth microdilution assay (MIC); format: cell-based; details: BHI broth, 37° C., 24 h, no visible growth
Method: as §3, §4
CAms were evaluated against five selected pathogenic microorganisms, including Gram-positive bacteria (i.e., S. aureus and L. monocytogenes) and Gram-negative bacteria (i.e., E. coli, S. typhimurium, and P. aeruginosa), using a turbidity-based microdilution method. MICs were taken as the lowest concentrations that inhibited the visible bacterial growth.

[7] = test system: L. plantarum biofilm; experiment: Minimum biofilm bactericidal concentration (MBC-B); format: cell-based, Lactobacillus plantarum; details: pre-formed biofilm, ≥3 log reduction
Method: as §1, §2

[8] = test system: Human foreskin fibroblast (HFF) cells; format: cell-based; details: for IC50: Table 2 of Example 1, cytotoxicity IC50 of CAms
Method: HFFs were cultured in DMEM supplemented with 10% fetal bovine serum, 1% penicillin/streptomycin and plated at a concentration of 10,000 cells/well in 96-well plate. Plates were incubated at 37° C. and 5% CO2 for 24 h to allow cell attachment prior to use.
CAMs were tested for cytotoxicity against HFFs using a tetrazolium-based colorimetric assay (MTT). CAMs were first dissolved in ddH2O and then diluted in cell medium (DMEM supplemented with 1% penicillin/streptomycin) to reach concentrations of 15.6, 3.9, and 0.95 μg/mL. 100 μL cell media containing CAMs were then added to allocated wells in a 96-well plate. Cells treated with only 1% Triton X-100 and cell medium were used as positive and negative controls, respectively. After 24 h incubation, the medium was removed and replaced with fresh medium. 20 μL of MTT reagent (12 mM in PBS) was then added to each well and further incubated for 4 h at 37° C. Formazan crystals were subsequently dissolved in 100 μL acidified SDS solution at 37° C. for 4 h. […] The following is used to calculate the percent of cell viability of HFFs: […]

Compound | MBC-B L. rhamnosus [1] [µM] | MIC L. monocytogenes (G+) [2] [µg/mL] | MIC S. aureus (G+) [3] [µg/mL] | MIC E. coli (G−) [4] [µg/mL] | MIC P. aeruginosa (G−) [5] [µg/mL] | MIC S. typhimurium (G−) [6] [µg/mL] | MBC-B L. plantarum [7] [µM] | IC50 [8] [µg/mL] | cytotoxicity to human fibroblasts (MTT cell viability) [8]
CCCCCCCC(=O)OC(C(=O)NCCN)C(OC(=O)CCCCCCC)C(=O)NCCN.Cl.Cl (centres unmarked) [8a] | >890 | 31.2 | 31.2 | 62.5 | 31.2 | 62.5 | >890 | 55.6 | –
CCCCCCCCCCOC(C(=O)NCCN)C(OCCCCCCCCCC)C(=O)NCCN.Cl.Cl (centres unmarked) [5b] | >850 | 0.95 | 0.95 | 3.9 | 3.9 | 3.9 | >850 | 5.6 | did not produce pronounced cytotoxicity
CCCCCCCCCC(=O)OC(C(=O)NCCN)C(OC(=O)CCCCCCCCC)C(=O)NCCN.Cl.Cl (centres unmarked) [8b] | >810 | 1.9 | 1.9 | 3.9 | 3.9 | 3.9 | >810 | 13.9 | did not produce pronounced cytotoxicity
